Measured values taken from ChEMBL document CHEMBL4177524, “Discovery of hepatitis B virus capsid assembly inhibitors leading to a heteroaryldihydropyrimidine based clinical candidate (GLS4)” (Bioorg Med Chem, 2017).

What was measured:
[1] = biological target: Core antigen (Hepatitis B virus) (UniProt Q03732); assay: Inhibition of hepatitis B virus capsid assembly infected in human HepG2.215 cells assessed as reduction in viral DNA replication measured on day 7 by real time PCR analysis; type: cell-based
[2] = Cytotoxicity in human HepG2.215 cells assessed as reduction in cell viability after 5 days by CCK8 assay; type: cell-based, HepG2 2.2.15; conditions: HepG2.2.15 cells

Core antigen (Hepatitis B virus), sequence (Q03732 as listed by the source): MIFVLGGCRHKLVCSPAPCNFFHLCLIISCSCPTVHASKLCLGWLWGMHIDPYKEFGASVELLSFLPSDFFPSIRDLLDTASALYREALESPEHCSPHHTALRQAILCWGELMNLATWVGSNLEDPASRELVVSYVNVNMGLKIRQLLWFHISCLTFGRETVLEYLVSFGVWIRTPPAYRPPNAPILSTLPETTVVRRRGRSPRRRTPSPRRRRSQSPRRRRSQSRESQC

SMILES	EC90 [1]	CC50 at 120 h [2]
COC(=O)C1=C(C)NC(c2nccs2)=N[C@H]1c1ccc(F)cc1Cl	0.3 µM	> 45 µM
C[C@H](Cn1cnc2c(N)ncnc21)OCP(=O)(O)O [TENOFOVIR ANHYDROUS]	–	399 µM
